ChEMBL document CHEMBL1147683, “Synthesis of new and potent analogues of anti-tuberculosis agent 5-nitro-furan-2-carboxylic acid 4-(4-benzyl-piperazin-1-yl)-benzylamide with improved bioavailability” (Bioorg Med Chem Lett, 2006)
In brackets after ≈: the same amount, converted by molar mass.

Tests used:
[1] = test system: Mycobacterium tuberculosis; assay: Antituberculosis activity against Mycobacterium tuberculosis; assay type: functional
[2] = (§1) Cmax in mouse serum at 300 mg/kg, po; assay type: ADME, organism-based; parameters: dose 300 mg/kg, route oral; conditions: serum
[3] = Tmax in mouse at 300 mg/kg, po; assay type: ADME, organism-based; parameters: dose 300 mg/kg, route oral; conditions: in vivo
[4] = Half life in mouse serum at 300 mg/kg, po; assay type: ADME, organism-based; parameters: dose 300 mg/kg, route oral
Mus musculus = assay: as §1; assay type: ADME, organism-based; parameters: dose 300 mg/kg, route oral; conditions: in vivo

| Compound | MIC90 [1] [µg/mL] | Cmax [2] [ng/mL] | Tmax [3] [h] | half-life [4] [h] | Cmax (Mus musculus) [ng/mL] |
| --- | --- | --- | --- | --- | --- |
| O=C(NCc1ccc(N2CCN(Cc3ccccc3)CC2)cc1)c1ccc([N+](=O)[O-])o1 | 0.0125 (≈ 0.0297 µM) | – | – | – | – |
| O=C(c1ccc([N+](=O)[O-])o1)N1CCc2cc(N3CCSCC3)ccc2C1 | 0.4 (≈ 1.07 µM) | – | – | – | – |
| C=CCOC(=O)N1CCN(c2ccc(CNC(=O)c3ccc([N+](=O)[O-])o3)cc2)CC1 | 0.5 (≈ 1.21 µM) | – | – | – | – |
| CC(C)NC(=O)N1CCN(c2ccc(CNC(=O)c3ccc([N+](=O)[O-])o3)cn2)CC1 | 0.56 (≈ 1.34 µM) | 22000 | 2.5 | 0.5 | – |
| CCCNC(=O)N1CCN(c2ccc(CNC(=O)c3ccc([N+](=O)[O-])o3)cc2)CC1 | 0.2 (≈ 0.481 µM) | 4800 | 2.5 | 1.5 | – |
| CC(C)(C)OC(=O)N1CCCN(c2ccc(CNC(=O)c3ccc([N+](=O)[O-])o3)cc2)CC1 | 0.1 (≈ 0.225 µM) | 280 | 0.5 | 7.5 | – |
| CCCCOC(=O)N1CCN(c2ccc(CNC(=O)c3ccc([N+](=O)[O-])o3)cc2)CC1 | 0.05 (≈ 0.116 µM) | – | – | – | – |
| O=C(NCc1ccc(N2CCCN(Cc3ccccc3)CC2)cc1)c1ccc([N+](=O)[O-])o1 | 0.8 (≈ 1.84 µM) | – | – | – | – |
| CC(C)(C)OC(=O)N1CCN(c2ccc(CNC(=O)c3ccc([N+](=O)[O-])o3)cn2)CC1 | 0.05 (≈ 0.116 µM) | 1230 | 0.5 | 2.3 | – |
| CCOC(=O)N1CCN(c2ccc(CNC(=O)c3ccc([N+](=O)[O-])o3)cc2)CC1 | 0.0062 (≈ 0.0154 µM) | – | – | – | – |
| CCOC(=O)N1CCCN(c2ccc(CNC(=O)c3ccc([N+](=O)[O-])o3)cc2)CC1 | 0.1 (≈ 0.24 µM) | – | – | – | – |
| CC(C)NC(=O)N1CCCN(c2ccc(CNC(=O)c3ccc([N+](=O)[O-])o3)cc2)CC1 | 0.8 (≈ 1.86 µM) | 7400 | 0.5 | 2 | – |
| CC(C)NC(=O)N1CCN(c2ccc(CNC(=O)c3ccc([N+](=O)[O-])o3)cc2)CC1 | 0.8 (≈ 1.93 µM) | – | – | – | – |
| CCOC(=O)N1CCN(c2ccc(CNC(=O)c3ccc([N+](=O)[O-])o3)cn2)CC1 | 0.05 (≈ 0.124 µM) | 6560 | 2.5 | 0.7 | – |
| O=C(c1ccc([N+](=O)[O-])o1)N1CCc2cc(N3CCN(Cc4ccccc4)CC3)ccc2C1 | 0.0062 (≈ 0.0139 µM) | – | – | – | – |
| O=C(NCc1ccc(N2CCN(Cc3ccccc3)CC2)nc1)c1ccc([N+](=O)[O-])o1 | 0.0062 (≈ 0.0147 µM) | 1470 | 0.5 | 1.3 | – |
| COC(=O)N1CCN(c2ccc(CNC(=O)c3ccc([N+](=O)[O-])o3)cc2)CC1 | 0.1 (≈ 0.257 µM) | – | – | – | – |
| CC(C)(C)OC(=O)N1CCN(c2ccc(CNC(=O)c3ccc([N+](=O)[O-])o3)cc2)CC1 | 0.025 (≈ 0.0581 µM) | – | – | – | – |
| CC(C)COC(=O)N1CCN(c2ccc(CNC(=O)c3ccc([N+](=O)[O-])o3)cc2)CC1 | 0.05 (≈ 0.116 µM) | – | – | – | – |
| CN1CCN(c2ccc3c(c2)CCN(C(=O)c2ccc([N+](=O)[O-])o2)C3)CC1 | 0.2 (≈ 0.54 µM) | – | – | – | – |
| Cl.O=C(c1ccc([N+](=O)[O-])o1)N1CCc2cc(N3CCN(Cc4ccccc4)CC3)ccc2C1 | – | 736 | 0.5 | 3.5 | – |
| CN1CCN(c2ccc3c(c2)CCN(C(=O)c2ccc([N+](=O)[O-])o2)C3)CC1.Cl | – | 280 | 0.5 | 2 | – |
| Cl.O=C(NCc1ccc(N2CCN(Cc3ccccc3)CC2)cc1)c1ccc([N+](=O)[O-])o1 | – | – | – | – | 2240 |
